pEC50: −log10 of the molar value. ≈ marks a conversion by molar mass, not a printed value. Calls of active or inactive are those of the source. The calls are words filed in the database; no cut-off is given here.
Tests used:
[1] = tested on: HeLa; test: Cytotoxicity against Homo sapiens (human) HeLa cells assessed as cell death at 12.5 uM after 48 hr by MTT assay; format: functional
[2] = tested on: Escherichia coli; test: Antibacterial activity against Escherichia coli after 16 to 18 hr by serial dilution method; format: functional
[3] = tested on: HeLa; test: Cytotoxicity against Homo sapiens (human) HeLa cells assessed as cell death at 50 uM after 48 hr by MTT assay; format: functional
[4] = tested on: Candida albicans; test: Antifungal activity against Candida albicans after 16 to 18 hr by serial dilution method; format: functional
[5] = tested on: HeLa; test: Cytotoxicity against Homo sapiens (human) HeLa cells assessed as cell death at 25 uM after 48 hr by MTT assay; format: functional
[6] = tested on: HeLa; test: Cytotoxicity against Homo sapiens (human) HeLa cells after 48 hr by MTT assay; format: functional, cell-based
[7] = tested on: Pseudomonas aeruginosa; test: Antibacterial activity against Pseudomonas aeruginosa after 16 to 18 hr by serial dilution method; format: functional
[8] = tested on: HeLa; test: Cytotoxicity against Homo sapiens (human) HeLa cells assessed as cell death at 100 uM after 48 hr by MTT assay; format: functional
[9] = tested on: Staphylococcus aureus; test: Antibacterial activity against Staphylococcus aureus after 16 to 18 hr by serial dilution method; format: functional
[10] = tested on: Bacillus cereus; test: Antibacterial activity against Bacillus cereus after 16 to 18 hr by serial dilution method; format: functional
[11] = tested on: HeLa; test: Cytotoxicity against Homo sapiens (human) HeLa cells assessed as cell death at 2.5 uM after 48 hr by MTT assay; format: functional

SMILES | Activity [1] [%] | MIC [2] [µg/mL] | Activity [3] [%] | MIC [4] [µg/mL] | Activity [5] | pEC50 [6] | MIC [7] [µg/mL] | Activity [8] [%] | MIC [9] [µg/mL] | MIC [10] [µg/mL] | Activity [11] [%]
COc1ccc2cc(/C=N/n3c(Cc4ccc(S(C)(=O)=O)cc4)n[nH]c3=S)ccc2c1 | 43.71 | 6.25 (≈ 13.8 µM) | 54.13 | 6.25 (≈ 13.8 µM) | 42.01% | 4.30 | 6.25 (≈ 13.8 µM) | 64.6 | 6.25 (≈ 13.8 µM) | 6.25 (≈ 13.8 µM) | 
CS(=O)(=O)c1ccc(Cc2n[nH]c(=S)n2/N=C/c2ccccc2Cl)cc1 | 34.65 | 6.25 (≈ 15.4 µM) | 42.65 | 3.12 (≈ 7.68 µM) | 36.26% |  | 3.12 (≈ 7.68 µM) | 76.53 | 12.5 (≈ 30.7 µM) | 6.25 (≈ 15.4 µM) | 
CSc1ccc(/C=N/n2c(Cc3ccc(S(C)(=O)=O)cc3)n[nH]c2=S)cc1 | 27.94 | 3.12 (≈ 7.47 µM) | 57.5 | 3.12 (≈ 7.47 µM) | 32.66% | 4.30 | 3.12 (≈ 7.47 µM) | 71.86 | 3.12 (≈ 7.47 µM) | 3.12 (≈ 7.47 µM) | 
CS(=O)(=O)c1ccc(Cc2n[nH]c(=S)n2/N=C/c2cccs2)cc1 | 28.69 | 3.12 (≈ 8.26 µM) | 48.59 | 3.12 (≈ 8.26 µM) | 33.33% | 4.00 | 6.25 (≈ 16.5 µM) | 61.09 | 12.5 (≈ 33 µM) | 12.5 (≈ 33 µM) | 
CS(=O)(=O)c1ccc(Cc2n[nH]c(=S)n2/N=C/c2c(F)cccc2Cl)cc1 | 49.84 | 6.25 (≈ 14.7 µM) | 70.55 | 3.12 (≈ 7.35 µM) | 55.32% | 4.60 | 3.12 (≈ 7.35 µM) | 77.28 | 6.25 (≈ 14.7 µM) | 3.12 (≈ 7.35 µM) | 
CS(=O)(=O)c1ccc(Cc2n[nH]c(=S)n2/N=C/c2ccc(-c3ccccc3)cc2)cc1 | 30.44 | 3.12 (≈ 6.97 µM) | 61.56 | 6.25 (≈ 13.9 µM) | 37.32% | 4.30 | 6.25 (≈ 13.9 µM) | 69.54 | 6.25 (≈ 13.9 µM) | 6.25 (≈ 13.9 µM) | 
CS(=O)(=O)c1ccc(Cc2n[nH]c(=S)n2/N=C/c2ccc(Cl)cc2)cc1 | 44.73 | 12.5 (≈ 30.7 µM) | 53.99 | 1.56 (≈ 3.84 µM) | 47.51% | 4.30 | 6.25 (≈ 15.4 µM) | 57.04 | 6.25 (≈ 15.4 µM) | 6.25 (≈ 15.4 µM) | 
CS(=O)(=O)c1ccc(Cc2n[nH]c(=S)n2/N=C/c2ccccc2F)cc1 | 16.48 | 3.12 (≈ 8 µM) | 21.9 | 3.12 (≈ 8 µM) | 14.03% | < 4.00 | 6.25 (≈ 16 µM) | 28.08 | 6.25 (≈ 16 µM) | 3.12 (≈ 8 µM) | 
COc1cccc2c1C(=O)c1c(O)c3c(c(O)c1C2=O)C[C@@](O)(C(=O)CO)C[C@@H]3O[C@H]1C[C@H](N)[C@H](O)[C@H](C)O1 [DOXORUBICIN] |  |  |  |  |  | 5.60 |  |  |  |  | 78.2
CC1(C)S[C@@H]2[C@H](NC(=O)Cc3ccccc3)C(=O)N2[C@H]1C(=O)O [PENICILLIN G] |  | 0.097 (≈ 0.29 µM) |  |  |  |  | 0.097 (≈ 0.29 µM) |  | 0.097 (≈ 0.29 µM) | 0.097 (≈ 0.29 µM) | 
CS(=O)(=O)c1ccc(Cc2n[nH]c(=S)n2/N=C/c2ccc(F)cc2)cc1 | 2.8 | 6.25 (≈ 16 µM) | 26.25 | 3.12 (≈ 8 µM) | inactive | 4.00 | 6.25 (≈ 16 µM) | 57.79 | 12.5 (≈ 32 µM) | 6.25 (≈ 16 µM) | 
CS(=O)(=O)c1ccc(Cc2n[nH]c(=S)n2/N=C/c2cccnc2)cc1 | 16.89 | 6.25 (≈ 16.7 µM) | 14 | 6.25 (≈ 16.7 µM) | 19.36% | < 4.00 | 6.25 (≈ 16.7 µM) | 45.1 | 6.25 (≈ 16.7 µM) | 12.5 (≈ 33.5 µM) | 
OC(Cn1cncn1)(Cn1cncn1)c1ccc(F)cc1F [FLUCONAZOLE] |  |  |  | 0.78 (≈ 2.55 µM) |  |  |  |  |  |  | 
